{
  "source": "ChEMBL document CHEMBL1201862",
  "about": "“PubChem BioAssay data set” (2004)",
  "assay_in_all_cases": "NCI anticancer screen, dose series, 48 h",
  "key": {"[1]": {"test_system": "DMS-114"}, "[2]": {"test_system": "HCT-116"}, "[3]": {"test_system": "HCT-15"}, "[4]": {"test_system": "SNB-75"}, "[5]": {"test_system": "UACC-257"}, "[6]": {"test_system": "SW-620"}, "[7]": {"test_system": "NCI-H522"}, "[8]": {"test_system": "SNB-19"}, "[9]": {"test_system": "SK-OV-3"}, "[10]": {"test_system": "SK-MEL-28"}, "[11]": {"test_system": "DLD-1"}, "[12]": {"test_system": "M19-MEL"}, "[13]": {"test_system": "NCI-H23"}, "[14]": {"test_system": "EKVX"}, "[15]": {"test_system": "OVCAR-3"}, "[16]": {"test_system": "IGROV-1"}, "[17]": {"test_system": "SF-268"}, "[18]": {"test_system": "HOP-62"}, "[19]": {"test_system": "CAKI-1"}, "[20]": {"test_system": "OVCAR-4"}, "[21]": {"test_system": "SF-295"}, "[22]": {"test_system": "SN12C"}, "[23]": {"test_system": "U-251"}, "[24]": {"test_system": "SK-MEL-2"}, "[25]": {"test_system": "NCI-H460"}, "[26]": {"test_system": "HT-29"}, "[27]": {"test_system": "SNB-78"}, "[28]": {"test_system": "HL-60"}, "[29]": {"test_system": "SR"}, "[30]": {"test_system": "TK-10"}, "[31]": {"test_system": "A498"}, "[32]": {"test_system": "A549"}, "[33]": {"test_system": "Malme-3M"}, "[34]": {"test_system": "CCRF-CEM"}, "[35]": {"test_system": "SK-MEL-5"}, "[36]": {"test_system": "MOLT-4"}, "[37]": {"test_system": "786-0"}, "[38]": {"test_system": "LXFL 529"}, "[39]": {"test_system": "KM-20L2"}, "[40]": {"test_system": "NCI-H226"}, "[41]": {"test_system": "ACHN"}, "[42]": {"test_system": "M14"}, "[43]": {"test_system": "UO-31"}, "[44]": {"test_system": "OVCAR-8"}, "[45]": {"test_system": "OVCAR-5"}, "[46]": {"test_system": "K562"}, "[47]": {"test_system": "COLO 205"}, "[48]": {"test_system": "RPMI-8226"}, "[49]": {"test_system": "UACC-62"}, "[50]": {"test_system": "HCC 2998"}},
  "note": "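A five-concentration, 48-hour dose response in 96-well plates underlies each endpoint, interpolated linearly between surrounding concentrations. GI50 marks 50% less growth.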 Calls of active or inactive are those of the source. Cut-off read from the data, not from the text of the source: active = GI50 up to about 1.1 µM and inactive = higher.",
  "data": [
    {"molecule": "C1CC[N+]23CCCC[N+]2(C1)CCCC3", "note": "(stereo not given)", "values": [
      {"measurement": "GI50", "setting": "[1]", "result": "56.2 µM (inactive)"},
      {"measurement": "GI50", "setting": "[2]", "result": "> 100 µM (inactive)"},
      {"measurement": "GI50", "setting": "[3]", "result": "> 100", "unit": "µM"},
      {"measurement": "GI50", "setting": "[4]", "result": "> 100 µM (inactive)"},
      {"measurement": "GI50", "setting": "[5]", "result": "> 100 µM (inactive)"},
      {"measurement": "GI50", "setting": "[6]", "result": "> 100 µM (inactive)"},
      {"measurement": "GI50", "setting": "[7]", "result": "> 100 µM (inactive)"},
      {"measurement": "GI50", "setting": "[8]", "result": "> 100 µM (inactive)"},
      {"measurement": "GI50", "setting": "[9]", "result": "> 100 µM (inactive)"},
      {"measurement": "GI50", "setting": "[10]", "result": "> 100 µM (inactive)"},
      {"measurement": "GI50", "setting": "[11]", "result": "> 100 µM (inactive)"},
      {"measurement": "GI50", "setting": "[12]", "result": "> 100 µM (inactive)"},
      {"measurement": "GI50", "setting": "[13]", "result": "> 100 µM (inactive)"},
      {"measurement": "GI50", "setting": "[14]", "result": "> 100 µM (inactive)"},
      {"measurement": "GI50", "setting": "[15]", "result": "> 100 µM (inactive)"},
      {"measurement": "GI50", "setting": "[16]", "result": "> 100 µM (inactive)"},
      {"measurement": "GI50", "setting": "[17]", "result": "> 100 µM (inactive)"},
      {"measurement": "GI50", "setting": "[18]", "result": "> 100 µM (inactive)"},
      {"measurement": "GI50", "setting": "[19]", "result": "> 100 µM (inactive)"},
      {"measurement": "GI50", "setting": "[20]", "result": "> 100 µM (inactive)"},
      {"measurement": "GI50", "setting": "[21]", "result": "> 100 µM (inactive)"},
      {"measurement": "GI50", "setting": "[22]", "result": "> 100 µM (inactive)"},
      {"measurement": "GI50", "setting": "[23]", "result": "> 100 µM (inactive)"},
      {"measurement": "GI50", "setting": "[24]", "result": "> 100 µM (inactive)"},
      {"measurement": "GI50", "setting": "[25]", "result": "> 100 µM (inactive)"},
      {"measurement": "GI50", "setting": "[26]", "result": "> 100 µM (inactive)"},
      {"measurement": "GI50", "setting": "[27]", "result": "> 100 µM (inactive)"},
      {"measurement": "GI50", "setting": "[28]", "result": "> 100 µM (inactive)"},
      {"measurement": "GI50", "setting": "[29]", "result": "> 100 µM (inactive)"},
      {"measurement": "GI50", "setting": "[30]", "result": "> 100 µM (inactive)"},
      {"measurement": "GI50", "setting": "[31]", "result": "> 100 µM (inactive)"},
      {"measurement": "GI50", "setting": "[32]", "result": "> 100 µM (inactive)"},
      {"measurement": "GI50", "setting": "[33]", "result": "> 100 µM (inactive)"},
      {"measurement": "GI50", "setting": "[34]", "result": "> 100 µM (inactive)"},
      {"measurement": "GI50", "setting": "[35]", "result": "> 100 µM (inactive)"},
      {"measurement": "GI50", "setting": "[36]", "result": "> 100 µM (inactive)"},
      {"measurement": "GI50", "setting": "[37]", "result": "> 100 µM (inactive)"},
      {"measurement": "GI50", "setting": "[38]", "result": "> 100 µM (inactive)"},
      {"measurement": "GI50", "setting": "[39]", "result": "> 100 µM (inactive)"},
      {"measurement": "GI50", "setting": "[40]", "result": "> 100 µM (inactive)"},
      {"measurement": "GI50", "setting": "[41]", "result": "> 100 µM (inactive)"},
      {"measurement": "GI50", "setting": "[42]", "result": "> 100 µM (inactive)"},
      {"measurement": "GI50", "setting": "[43]", "result": "> 100 µM (inactive)"},
      {"measurement": "GI50", "setting": "[44]", "result": "> 100 µM (inactive)"},
      {"measurement": "GI50", "setting": "[45]", "result": "> 100 µM (inactive)"},
      {"measurement": "GI50", "setting": "[46]", "result": "> 100 µM (inactive)"},
      {"measurement": "GI50", "setting": "[47]", "result": "> 100 µM (inactive)"},
      {"measurement": "GI50", "setting": "[48]", "result": "> 100 µM (inactive)"},
      {"measurement": "GI50", "setting": "[49]", "result": "> 100 µM (inactive)"},
      {"measurement": "GI50", "setting": "[50]", "result": "> 100 µM (inactive)"}
    ]}
  ]
}
